The values that follow come from US20260027132A1, “FRAGRANCE COMPOSITIONS AND USE THEREOF FOR IMPROVING SLEEP” (TAKASAGO INTERNATIONAL CORPORATION, priority 2018, published 2026).

For the assay, the system named is panelists. The experiment in a line: Sleep study with panelists smelling test material at bedtime, Fitbit sleep data versus blank control. The assay is classed as in vivo, human. The settings on record: vs blank control (no fragrance), 0.06 g neat oil on a blotter, smelled at bedtime, jar left open, one week. As to the method:
A series of sleep studies were conducted. Each study runs one week with one additional week for blank control sample (no fragrance). The number of panelists in each study ranged from 9 to 15. Panelists received either a set of control jars or a set of jars with test material (0.06 g neat oil on a blotter). The second week the order was reversed such that at the end of each study, each panelist had received both treatments.
Each night, when ready to go to sleep, panelists were instructed to open one of the jars, hold it under their nose, and smell the fragrance while counting slowly to 20, then leave the jar open on the night table while sleeping. Fitbit sleep data were collected at the end of each session of each study and analyzed by ANOVA.
With `O=C1CCCC=CCCCCCCCCCC1` [Ambretone, 5-cyclohexadecen-1-one], the “Total light sleep minutes % Increase” value was determined as 4%.
For `CC1(C)CCC[C@]2(C)[C@H]3CCO[C@]3(C)CC[C@@H]12` [Ambroxan, (3aR,5aS,9aS,9bR)-3a,6,6,9a-tetramethyl-2,4,5,5a,7,8,9,9b-octahydro-1H-benzo[e][1]benzofuran], the “Total minutes awake % Decrease” value is recorded as 8%.
As to `CC(C=O)Cc1ccc(C(C)C)cc1` (stereo not shown) [Cyclamen aldehyde, cyclamen aldehyde], the “Sleep efficiency % Increase” value is 1.2%, the “Total deep sleep minutes % Increase” value is listed as 7.4%, the “Total minutes asleep % Increase” value is 4% and the “Total minutes awake % Decrease” value came to 7%.
In the case of `C=CC(C)CCCC(C)(C)O` (stereo not shown) [Dihydromyrcenol, dihydromyrcenol], the “Total REM sleep minutes % Increase” value is 10%, the “Total deep sleep minutes % Increase” value amounted to 37% and the “Total minutes asleep % Increase” value is on record as 13%.
Regarding `CC(C)=CCC/C(C)=C/CO` [Geraniol, geraniol], the “Total deep sleep minutes % Increase” value is 29%, the “Total light sleep minutes % Increase” value is 8% and the “Total minutes asleep % Increase” value is given as 10%.
With `CC(C)[C@@H]1CC[C@@H](C)C[C@H]1O` [L-menthol], the “Sleep efficiency % Increase” value is 1% and the “Total light sleep minutes % Increase” value was 3%.
In the case of `CC1CCCCCCCCCCCCC(=O)C1` [L-muscone, 3-methylcyclopentadecan-1-one], the “Total deep sleep minutes % Increase” value is listed as 11%.
`CC(C=O)Cc1ccc(C(C)(C)C)cc1` (stereo not shown) [Lilial, lilial]: the “Sleep efficiency % Increase” value came out at 1%, the “Total REM sleep minutes % Increase” value came to 6%, the “Total light sleep minutes % Increase” value turned out to be 5% and the “Total minutes asleep % Increase” value is on record as 4%.
With `C=CC(C)(O)CCC=C(C)C` (stereo not shown) [Linalool, linalool], the “Total light sleep minutes % Increase” value is listed as 5%.
On to `C=CC(C)(CCC=C(C)C)OC(C)=O` (stereo not shown) [Linalyl acetate, linalyl acetate], for which the “Sleep efficiency % Increase” value came out at 2%, the “Total REM sleep minutes % Increase” value is 19%, the “Total deep sleep minutes % Increase” value worked out at 16% and the “Total minutes awake % Decrease” value stood at 10.6%.
In the case of `O=C1CCCCCCCCCCCC(=O)OCCO1` [Musk T, 1,4-dioxacycloheptadecane-5,17-dione], the “Sleep efficiency % Increase” value was 2% and the “Total minutes awake % Decrease” value was found to be 13%.
For the compound `CC(C)=CCC/C(C)=C\CO` [Nerol, nerol], the “Total light sleep minutes % Increase” value is 4% and the “Total minutes asleep % Increase” value is given as 4%.
As for `CC(C)C(=O)OCCOc1ccccc1` [Phenoxyethyl isobutyrate, phenoxyethyl isobutyrate], the “Total light sleep minutes % Increase” value came out at 8%.
As for `COc1cc(C=O)ccc1O` [Vanillin, vanillin], the “Total REM sleep minutes % Increase” value came out at 7%.
With `CC(=O)/C=C/C1C(C)=CCCC1(C)C` (stereo not drawn) [alpha-ionone], the “Total deep sleep minutes % Increase” value was determined as 14% and the “Total minutes asleep % Increase” value was found to be 5%.
Consider `CC(=O)/C=C/C1=C(C)CCCC1(C)C` [beta-ionone], for which the “Sleep efficiency % Increase” value was determined as 2%, the “Total light sleep minutes % Increase” value stood at 3% and the “Total minutes awake % Decrease” value turned out to be 12%.
In the case of `CC/C=C\CCOC(=O)c1ccccc1O` [cis-3-hexenyl salicylate], the “Total deep sleep minutes % Increase” value amounted to 8%.
Consider `CC(=O)/C(C)=C/C1C(C)=CCCC1(C)C` (stereo not shown) [gamma-methyl ionone], for which the “Total light sleep minutes % Increase” value was 12%.
